Source: patent publication US7659284B2, “Thiazolopyridine kinase inhibitors” (Janssen Pharmaceutica NV, priority 2004, dated 2010)

What was measured:
Format in all cases: biochemical
HER-2 = target: T1, HER-2 (Homo sapiens, UniProt P04626); assay: HER-2 Kinase Assay; settings: GST-HER2 kinase, 1 μM ATP
T1 construct: the nucleotides encoding amino acids 679 to 1255 of HER-2; HIS6 with thrombin site (N); purchased Proqinase (Freiburg, Germany)
Description: The HER-2 kinase used was purified at Proqinase (Freiburg, Germany) from a construct that consisted of a fusion of GST (Glutathione-S-Transferase), HIS6-Thrombin and the nucleotides encoding amino acids 679 to 1255 of HER-2.
A mixture of a 10× kinase reaction buffer (600 mM Hepes at pH 7.5, 30 mM Magnesium Chloride, 0.03 mM Sodium Vanadate and 500 μg/mL PEG 20,000), DTT (1.2 mM final from a 10 mM stock), ATP (1 μM from a 10 mM stock), biotinylated polyGluTyr (1.5 ng/μL final from stock of 1 μg/μL prepared by Upstate Biotechnologies, Lake Placid, N.Y.), Manganese Chloride (3 mM final from a 1 M stock), γy-^33P-ATP (10 μCi/μL stock) and water (70 μL/well) was added to each well of a Streptavidin Flashplate (Cat. # SMP103, NEN, Boston, Mass.).
Test compound stock (1 μL) was added to the appropriate wells. Diluted GSTHER2 kinase (6.7 ng/μL diluted into 50 mM Tris-HCl at pH 8.0 and 0.1% bovine serum albumin) (30 μL) was added (total volume of 200 ng/well) to initiate the reactions.
The reaction plates were incubated at 30° C. for 1 hr. The reaction was terminated by aspirating the reaction mixture from the plate wells and washing the wells three times with a 1×PBS stop buffer (300 μL) and 100 mM EDTA. After the final wash, the same stop buffer (200 μL) was again added to the wells. The plates were then sealed and read on the TopCount scintillation counter.
The IC50 was derived according to the procedure described in Example 52. For those compounds without an IC50, the percent inhibition results are shown at a test concentration of 1 μM.

EGFR = target: T2, EGFR (Homo sapiens, UniProt P00533); assay: EGFR Kinase Assay (GST-EGFR, 33P-ATP, Streptavidin Flashplate); settings: for IC50: GST-EGFR intracellular portion, 5 μM ATP; for inhibition at 2 µM: test concentration of 2 μM, read-out: EGFR percent inhibition
T2 construct: started at nucleotide 2189 (corresponding to amino acid 667) and ended at the termination codon; made in house; host or cells: Sf9 insect cells (baculovirus)
From the text: The EGFR kinase used was a fusion of Glutathione-S-Transferase (GST) and a PCR amplified intracellular portion of EGFR (NM_005228). The intracellular portion of EGFR started at nucleotide 2189 (corresponding to amino acid 667) and ended at the termination codon. The portion was PCR amplified with primers that added the lambda attB sequences to each end, recombined into an entry vector, then into a GST destination vector (as described in Gateway Technologies Manual by Invitrogen Corporation, Carlsbad, Calif.).
The destination vector was recombined in the DH10BAC strain of bacteria to produce a bacmid. The bacmid was transfected into Sf 9 cells and the supernatant containing the baculovirus was collected. The GSTEGFR protein was purified using large cultures of Sf 9 cells infected with stock virus. After an appropriate period of time, the cells were collected and lysed. The GSTEGFR was then purified from the lysate on Glutathione-Sepharose columns (as described by Amersham Biosciences, Buckinghamshire, United Kingdom).
The EGFR substrate was prepared by biotinylating polyGluTyr (128 mg) (Sigma, St. Louis, Mo.) in a 1×PBS buffer incubated together with a 12-fold molar excess of Sulfo-NHS-LC-Biotin on ice for at least 2 hrs. The free biotin was separated from the biotinylated polyGluTyr on a gel filtration column.
A mixture of a 10× kinase buffer (500 mM Tris at pH 8.0, 100 mM Magnesium Chloride and 1 mM Sodium Vanadate), DTT (1 mM final from 500 mM stock), ATP (5 μM final from 10 mM stock), biotinylated polyGluTyr (10 μg/μL stock), γ-^33P ATP (10 μCi/μL stock) and water was added to each well (90 μL/well) of a Streptavidin Flashplate (Perkin Elmer, Wellesley, Mass.).
Test compound in 100% DMSO (2 μL) was added to the appropriate wells. Diluted GSTEGFR (1:300 dilution in 50 mM Tris at pH 8.0 and 0.1% bovine serum albumin) (10 μL) was added to the wells to initiate the reactions.
The plates were incubated at 30° C. for 1 hr with shaking. The reacted contents were removed and the plates were sequentially washed three times with a 1×PBS stop buffer (300 μL without Magnesium and Calcium) and 100 mM EDTA. After the final wash, the same stop buffer (200 μL) was added to the wells. The plates were then sealed and read on the TopCount scintillation counter.
Test compounds were assayed in triplicate at 16 concentrations at half-log dilutions starting at 200 uM. A maximum and minimum signal for the assay was determined on each plate. The percent inhibition of a test compound was calculated accord to the formula
For a series of test concentrations, the IC50 was derived by graphing percent inhibition against the log of the concentrations tested for a given compound. For those compounds without an IC50, the percent inhibition results are shown at a test concentration of 2 μM.

c-Src kinase (human) = target: T3, c-Src kinase (human) (Homo sapiens, UniProt P12931); assay: c-Src Kinase Assay; settings: for inhibition at 1.6 µM: test concentration (2) 1.6 μM, read-out: c-SRC percent inhibition; for IC50: human c-Src, 5 μM ATP
T3 construct: purchased Upstate Biotechnology, Lake Placid, N.Y
Description: […] a 10× kinase buffer (80 mM MOPS at pH 7.0, 2 mM EDTA and 100 mM Magnesium Chloride), ATP (5 μM final from a 10 mM stock), a Cdc2 peptide KVEKIGEGTYGVVYK (100 μM final from a 2.5 mM stock), γ-^33P ATP (10 μCi/μL stock) and water (20 μL/well) was added to each well of a Streptavidin Flashplate.
Test compound in 100% DMSO (0.5 μL) was added to the appropriate wells. Diluted c-Src kinase (human) (Upstate Biotechnology, Lake Placid, N.Y.) (diluted in a buffer consisting of 20 mM MOPS at pH 7.0, 1 mM EDTA, β-mercaptoethanol (0.1%), Brij-35 (0.01%), glycerol (5%), and 1 mg/mL bovine serum albumin) (2.5 μL) was added to the wells to initiate the reactions. The reaction plates were incubated at 30° C. for 40 min. The reaction was terminated by the addition of a 3% phosphoric acid solution (5 μL). The reaction product (10 μL) was spotted onto a P30 filtermat and washed for 5 minutes in phosphoric acid (75 mM). The wash sequence was repeated two more times, followed with one final wash in methanol. The plates were then dried, sealed and read on the TopCount scintillation counter after adding 30 μL scintillation fluid.
The percent inhibitions and IC50 values were derived according to the procedure described in Example 52. For those compounds without an IC50, the percent inhibition results are shown at a test concentration of ^(1)1 μM or ^(2)1.6 μM.

T2 sequence (P00533 667-1210 limits assumed): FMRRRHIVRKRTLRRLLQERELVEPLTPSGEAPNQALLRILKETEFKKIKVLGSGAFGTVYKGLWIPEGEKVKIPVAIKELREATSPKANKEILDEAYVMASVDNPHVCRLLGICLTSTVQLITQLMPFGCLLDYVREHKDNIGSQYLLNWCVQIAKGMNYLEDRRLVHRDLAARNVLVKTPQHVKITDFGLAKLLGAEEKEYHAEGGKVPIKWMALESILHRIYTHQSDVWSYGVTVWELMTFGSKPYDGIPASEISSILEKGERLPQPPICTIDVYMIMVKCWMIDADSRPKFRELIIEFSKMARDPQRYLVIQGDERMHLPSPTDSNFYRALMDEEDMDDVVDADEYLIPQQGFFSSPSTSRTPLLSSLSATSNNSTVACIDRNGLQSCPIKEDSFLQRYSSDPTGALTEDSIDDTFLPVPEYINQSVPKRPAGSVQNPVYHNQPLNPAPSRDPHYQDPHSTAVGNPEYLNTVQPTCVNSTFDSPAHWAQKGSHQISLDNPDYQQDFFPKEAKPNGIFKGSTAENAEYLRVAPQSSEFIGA
T3 sequence (P12931 whole entry): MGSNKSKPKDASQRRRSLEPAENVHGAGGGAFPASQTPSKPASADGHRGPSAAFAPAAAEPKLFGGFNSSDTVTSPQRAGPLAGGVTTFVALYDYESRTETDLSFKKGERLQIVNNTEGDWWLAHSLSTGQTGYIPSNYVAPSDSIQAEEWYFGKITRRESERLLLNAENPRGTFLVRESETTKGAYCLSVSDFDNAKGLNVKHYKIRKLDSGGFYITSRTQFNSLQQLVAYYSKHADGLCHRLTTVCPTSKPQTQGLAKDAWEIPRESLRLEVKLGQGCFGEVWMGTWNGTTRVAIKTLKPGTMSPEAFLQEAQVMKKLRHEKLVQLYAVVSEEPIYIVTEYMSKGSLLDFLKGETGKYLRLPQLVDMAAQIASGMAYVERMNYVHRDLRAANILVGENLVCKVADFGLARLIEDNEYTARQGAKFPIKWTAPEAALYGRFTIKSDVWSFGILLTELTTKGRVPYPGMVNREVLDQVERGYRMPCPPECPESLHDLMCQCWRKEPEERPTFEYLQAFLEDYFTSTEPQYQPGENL
T1 sequence (P04626 679-1255): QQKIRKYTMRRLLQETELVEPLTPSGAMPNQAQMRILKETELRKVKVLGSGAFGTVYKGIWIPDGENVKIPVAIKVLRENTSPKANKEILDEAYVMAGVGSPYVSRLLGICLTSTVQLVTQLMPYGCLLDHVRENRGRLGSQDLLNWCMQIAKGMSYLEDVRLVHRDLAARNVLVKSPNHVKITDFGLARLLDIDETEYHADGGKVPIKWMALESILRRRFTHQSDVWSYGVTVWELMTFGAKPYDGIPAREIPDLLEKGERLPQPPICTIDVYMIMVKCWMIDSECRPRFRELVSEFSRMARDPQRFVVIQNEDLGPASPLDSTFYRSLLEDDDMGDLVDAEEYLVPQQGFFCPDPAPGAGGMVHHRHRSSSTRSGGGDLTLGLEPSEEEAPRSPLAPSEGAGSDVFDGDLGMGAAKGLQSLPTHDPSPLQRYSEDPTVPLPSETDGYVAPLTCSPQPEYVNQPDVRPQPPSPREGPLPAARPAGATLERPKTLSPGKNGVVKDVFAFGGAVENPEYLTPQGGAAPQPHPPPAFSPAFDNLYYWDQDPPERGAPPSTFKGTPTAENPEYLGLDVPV

| IC50 (HER-2) | IC50 (EGFR) | inhibition at 1.6 µM (c-Src kinase (human)) | IC50 (c-Src kinase (human)) | inhibition at 2 µM (EGFR) | Structure (SMILES) |
| --- | --- | --- | --- | --- | --- |
| 10000 nM | 56.5 nM | – | – | – | C#Cc1cccc(Nc2c(C#N)cnc3nc(Nc4ccc(CN(C)C)cc4)sc23)c1 [Cpd 10, 2-(4-dimethylaminomethyl-phenylamino)-7-(3-ethynyl-phenylamino)thiazolo[4,5-b]pyridine-6-carbonitrile] |
| 46000 nM | 39.9 nM | – | – | – | N#Cc1cnc2nc(Nc3ccc(CN4CCCC4)cc3)sc2c1Nc1ccc(F)c(Cl)c1 [Cpd 17, 7-(3-chloro-4-fluoro-phenylamino)-2-(4-pyrrolidin-1-ylmethyl-phenylamino)-thiazolo[4,5-b]pyridine-6-carbonitrile] |
| – | 461 nM | 11% | – | – | COc1ccc(Cl)c(Nc2c(C#N)cnc3nc(Nc4ccc(OCC5CCCN(C)C5)cc4)sc23)c1 (centres unmarked) [Cpd 35, 7-(2-chloro-5-methoxy-phenylamino)-2-[4-(1-methyl-piperidin-3-ylmethoxy)-phenylamino]-thiazolo[4,5-b]pyridine-6-carbonitrile] |
| – | 8760 nM | 4% | – | – | CN1CCCC(COc2ccc(Nc3nc4ncc(C#N)c(Oc5ccc(Cl)cc5Cl)c4s3)cc2)C1 (centres unmarked) [Cpd 36, 7-(2,4-dichloro-phenoxy)-2-[4-(1-methyl-piperidin-3-ylmethoxy)-phenylamino]-thiazolo[4,5-b]pyridine-6-carbonitrile] |
| – | 7210 nM | 3% | – | – | CN1CCCC(COc2ccc(Nc3nc4ncc(C#N)c(Oc5cccc(OC(F)(F)F)c5)c4s3)cc2)C1 (centres unmarked) [Cpd 37, 2-[4-(1-methyl-piperidin-3-ylmethoxy)-phenylamino]-7-(3-trifluoromethoxy-phenoxy)-thiazolo[4,5-b]pyridine-6-carbonitrile] |
| – | 2200 nM | 4% | – | – | CN1CCCC(COc2ccc(Nc3nc4ncc(C#N)c(Sc5cccc(Br)c5)c4s3)cc2)C1 (centres unmarked) [Cpd 38, 7-(3-bromo-phenylsulfanyl)-2-[4-(1-methyl-piperidin-3-ylmethoxy)-phenylamino]-thiazolo[4,5-b]pyridine-6-carbonitrile] |
| – | 3260 nM | – | > 100000 nM | – | CN1CCCC(COc2ccc(Nc3nc4ncc(C#N)c(Sc5ccc(F)cc5Cl)c4s3)cc2)C1 (centres unmarked) [Cpd 39, 7-(2-chloro-4-fluoro-phenylsulfanyl)-2-[4-(1-methyl-piperidin-3-ylmethoxy)-phenylamino]-thiazolo[4,5-b]pyridine-6-carbonitrile] |
| – | – | – | 2390 nM | 46% | CN1CCCC(COc2ccc(Nc3nc4ncc(C#N)c(Nc5c(Cl)ccc6c5OCO6)c4s3)cc2)C1 (centres unmarked) [Cpd 40, 7-(5-chloro-benzo[1,3]dioxol-4-ylamino)-2-[4-(1-methyl-piperidin-3-ylmethoxy)-phenylamino]-thiazolo[4,5-b]pyridine-6-carbonitrile] |
| – | – | – | 79 nM | 44% | N#Cc1cnc2nc(Nc3ccc(CN4CCCCC4)cc3)sc2c1Nc1c(Cl)ccc2c1OCO2 [Cpd 41, 7-(5-chloro-benzo[1,3]dioxol-4-ylamino)-2-(4-piperidin-1-ylmethyl-phenylamino)-thiazolo[4,5-b]pyridine-6-carbonitrile] |
| – | – | – | 1380 nM | 18% | COc1cc(Nc2nc3ncc(C#N)c(Nc4c(Cl)ccc5c4OCO5)c3s2)ccc1OCCN1CCOCC1 [Cpd 42, 7-(5-chloro-benzo[1,3]dioxol-4-ylamino)-2-[3-methoxy-4-(2-morpholin-4-yl-ethoxy)-phenylamino]-thiazolo[4,5-b]pyridine-6-carbonitrile] |
| – | – | – | > 100000 nM | 4% | COc1cc(Nc2nc3ncc(C#N)c(Nc4c(Cl)ccc5c4OCO5)c3s2)ccc1OCC1CCCCO1 (centres unmarked) [Cpd 43, 7-(5-chloro-benzo[1,3]dioxol-4-ylamino)-2-[3-methoxy-4-(tetrahydro-pyran-2-ylmethoxy)-phenylamino]-thiazolo[4,5-b]pyridine-6-carbonitrile] |
| – | – | – | 126 nM | 47% | N#Cc1cnc2nc(Nc3ccc(CNC[C@H]4CCCO4)cc3)sc2c1Nc1c(Cl)ccc2c1OCO2 [Cpd 44, 7-(5-chloro-benzo[1,3]dioxol-4-ylamino)-2-[4-({[(2R)-tetrahydro-furan-2-ylmethyl]-amino}-methyl)-phenylamino]-thiazolo[4,5-b]pyridine-6-carbonitrile] |
| – | – | – | 145 nM | – | N#Cc1cnc2nc(Nc3ccc(CN4CCCC4)cc3)sc2c1Nc1c(Cl)ccc2c1OCO2 [Cpd 45, 7-(5-chloro-benzo[1,3]dioxol-4-ylamino)-2-(4-pyrrolidin-1-ylmethyl-phenylamino)-thiazolo[4,5-b]pyridine-6-carbonitrile] |
| – | – | – | 389 nM | – | CN1CCN(Cc2ccc(Nc3nc4ncc(C#N)c(Nc5c(Cl)ccc6c5OCO6)c4s3)cc2)CC1 [Cpd 46, 7-(5-chloro-benzo[1,3]dioxol-4-ylamino)-2-[4-(4-methyl-piperazin-1-ylmethyl)-phenylamino]-thiazolo[4,5-b]pyridine-6-carbonitrile] |
